Source: US10189794B2, “Heteroaryl compounds and uses thereof” (Celgene CAR LLC, priority 2013, dated 2019)
Entries after “also recorded” stand apart in the source; their conditions may differ. Like-named read-outs stand apart in the source and are kept apart here.

What was measured:
[1] = target: FGFR4 in MDA-MB-453 cells (Homo sapiens (Human), UniProt P22455, Y367C); assay: Target occupancy assay with biotinylated covalent probe I-127; assay type: cell-based; conditions: MDA-MB-453 lysate; 2 μM biotinylated probe I-127
Chain of FGFR4 in MDA-MB-453 cells (P22455 22-802 Y367C): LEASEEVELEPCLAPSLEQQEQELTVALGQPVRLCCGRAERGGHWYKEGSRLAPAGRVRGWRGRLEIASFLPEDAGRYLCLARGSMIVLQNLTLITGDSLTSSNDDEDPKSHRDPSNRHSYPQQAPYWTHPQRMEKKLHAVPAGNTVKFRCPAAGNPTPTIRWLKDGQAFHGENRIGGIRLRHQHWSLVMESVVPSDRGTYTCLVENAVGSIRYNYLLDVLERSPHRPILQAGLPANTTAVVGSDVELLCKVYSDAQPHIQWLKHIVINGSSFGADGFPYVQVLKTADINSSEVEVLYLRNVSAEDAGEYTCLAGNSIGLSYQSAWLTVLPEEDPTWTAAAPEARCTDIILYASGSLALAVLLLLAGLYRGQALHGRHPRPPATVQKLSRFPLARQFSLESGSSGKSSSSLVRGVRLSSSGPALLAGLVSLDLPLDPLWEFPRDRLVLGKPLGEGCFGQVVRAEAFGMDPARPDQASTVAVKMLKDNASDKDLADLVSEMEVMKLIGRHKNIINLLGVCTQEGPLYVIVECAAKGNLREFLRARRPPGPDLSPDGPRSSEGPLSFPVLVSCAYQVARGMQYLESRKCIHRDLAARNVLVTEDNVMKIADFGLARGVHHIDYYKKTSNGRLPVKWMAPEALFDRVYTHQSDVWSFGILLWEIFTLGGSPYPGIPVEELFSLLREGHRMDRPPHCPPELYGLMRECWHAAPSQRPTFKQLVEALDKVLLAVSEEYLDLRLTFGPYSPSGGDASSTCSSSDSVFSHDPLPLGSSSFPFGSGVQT
Description: In order to assess free FGFR4 protein a biotinylated covalent probe was utilized. […] The reaction was incubated for 2 hr at room temperature. The samples and probe mixture were transferred to a FGFR4-coated MSD plate for 2 hr at room temperature. MSD signals were obtained with an anti-streptavidin Sulfo-tag (Meso Scale) antibody for 1 hr at room temperature.
If a compound completely (100%) covalently modies FGFR4 no free FGFR4 should be available for covalent modification by the biotinylated probe and subsequent binding to streptavidin and detection.

MDA-MB-453 cells = assay: Cell proliferation, MDA-MB-453 (CellTiter Glo); assay type: cell-based; conditions: Homo sapiens; MDA-MB-453; 96 hr; read-out: Cell Proliferation GI50 (nM) MDA
Description: For both MDA-MB-453 and Huh7 cells the starting density was 5000 cells per well. The cells were allowed to settle down for 4 hr and were then treated with 5, 1.25, 0.31, 0.078, 0.020 or 0.005 μM of test compound for: 96 hr for MDA-MB-453 and 120 hr for Huh7 cells. Cell viability was determined by CellTiter Glo (Promega, Madison, Wis.) and the results were converted to cell numbers using a standard curve. The growth inhibition (GI50) values were determined by Graph Pad Prism.
The results of these experiments show the ability of compounds to inhibit cell growth in FGFR dependant cell lines and are depicted in Table 8, in the columns titled “Cell Proliferation GI50 (nM)”. MDA-MB-453 cell results fall under the heading “MDA” and Huh7 cell results fall under the heading “Huh.”

FGFR4-WT = FGFR4-WT (Homo sapiens (Human), UniProt P22455); assay: Omnia assay for potency assessment against FGFR4 enzyme; assay type: biochemical
Chain of FGFR4-WT (P22455 22-802): as the sequence (P22455 22-802 Y367C) above, with C346Y counted along it
Description: A 10× stock solution of FGFR4-WT (PR4380C), (from Invitrogen, Carlsbad, Calif.) corresponding to method a in Table 7, was prepared as described below. Alternatively, a 10× stock solution of FGFR4-WT (F01-11G), (SignalChem, Richmond, BC) corresponding to method b in Table 7, was prepared as described below. A solution of 1.4×ATP (AS001A) and 5×Tyr-Sox conjugated peptide substrate (KNZ3101) were prepared in IX kinase reaction buffer consisting of 20 mM Tris, pH 7.5, 5 mM MgCl2, 1 mM EGTA, 5 mM β-glycerophosphate, 5% glycerol (10× stock, KB002A) and 0.2 mM DTT (DS001A). […] The serially diluted compounds were prepared on a Tecan EVO100. A second addition of 10 μl of Tyr-Sox FGFR4 substrate was added to each well and the kinase reactions were started with the addition of 35 μL of 1.4×ATP. The reactions were monitored every 71 seconds for 240 minutes at λex360/λem485 in a Synergy plate reader from BioTek (Winooski, Vt.).

Huh7 cells = assay: Cell proliferation, Huh7 (CellTiter Glo); assay type: cell-based; conditions: Homo sapiens, Huh-7; Huh7; 120 hr; read-out: Cell Proliferation GI50 (nM) HUH
Description: The growth inhibition (GI50) values were determined by Graph Pad Prism.

pFGFR4 in Huh7 cells = pFGFR4 in Huh7 cells (Homo sapiens (Human), UniProt P22455); assay: FGFR4 signaling (phospho-FGFR4) in Huh7 cells, MSD; assay type: cell-based; conditions: Meso Scale assay (MSD), 1 hr treatment, read-out: Signaling EC50 (nM) pFGFR4 (Huh)
Chain of pFGFR4 in Huh7 cells (P22455 22-802): as the sequence (P22455 22-802 Y367C) above, with C346Y counted along it

[2] = target: T1, pFGFR4 in MDA-MB-453 cells (Homo sapiens (Human), UniProt P22455, Y367C); assay: Washout experiment (duration of pFGFR4 inhibition); assay type: cell-based; conditions: 1000-2000 nM for 1 hr, washed, up to 24 hr
T1 sequence (P22455 22-802 Y367C): as the sequence (P22455 22-802 Y367C) above
Description: The cells were allowed to settle down for 4 hrs and were then maintained in low-serum (0.1% FBS) media overnight.
The following morning, the media was removed and the cells were treated with 1000-2000 nM of test compound in low-serum media for 1 hr. The cells were washed free of test compound (3×) with PBS (Invitrogen). One set of cells was immediately lysed as indicated above as the 0 hr time point. The remaining cells were incubated with the appropriate complete growth media (10-20% FBS) for 1, 2, 4, 8, 16 (in certain circumstances) and 24 hr. DMSO (0.5%) controls were collected at all time points.

[3] = target: T1, pFGFR4 in MDA-MB-453 cells; assay: FGFR4 signaling (phospho-FGFR4) in MDA-MB-453 cells; assay type: cell-based; conditions: 1 hr treatment
Description: Huh7 cells were grown in DMEM (Invitrogen, Carlsbad, Calif.) supplemented with 10% FBS (Invitrogen) and 1% Penicillin-Streptomycin (P/S, Lonza, Walkersville, Md.).
For the MSD and ELISA assays, total FGFR4 antibodies were obtained from R&D Systems (Minneapolis, Minn.) and used at 1:500. For the immunoblotting (Western blotting) assay, total FGFR4 antibody was obtained from Santa Cruz (Santa Cruz, Calif.) and used at 1:1000. Phospho-FGFR antibodies were obtained from Cell Signaling (Danvers, Mass.) or R&D Systems and used at 1:1000. The phopho-FGFR antibody from Cell Signaling was used for immunoblotting, whereas the phopho-FGFR antibody from R&D was used for MSD and ELISA assays. Secondary antibodies were used at 1:10,000. The goat anti-mouse IgG IRDye 800CW antibody was obtained from LiCor Biosciences (Lincoln, Nebr.) and the goat anti-rabbit IgG Alexa Fluor 680 was obtained from Invitrogen. The anti-rabbit Sulfo-tag and anti-streptavidin Sulfo-tag antibodies was obtained from Meso Scale Discovery (Gaithersburg, Md.), and were used at 1:1000 and 1:5000, respectively.
For MDA-MB-453 cells signaling, cells were grown in 96-well poly-D-lysine plates (BD Bioscience, San Jose, Calif.) to 90% confluence, and were then incubated in low-serum (0.1% FBS) media for 16-18 hr. […] After treatment, the cells were washed with cold PBS (Invitrogen) and were immediately lysed by freeze/thawing 3× in 32 μL of cold Cell Extraction Buffer (Invitrogen) which was supplemented with Complete Protease inhibitors (Roche, Indianapolis, Ind.) and PhosphoSTOP (Roche) phosphatase inhibitors.
Phospho-protein signals were quantitated using Odyssey Infrared Imaging (Li-Cor Biosciences).
To assess phospho-FGFR signaling, the blots were probed with anti-Phospho-FGFR (Y653/Y654) and total anti-FGFR antibodies. The phospho-FGFR signal was normalized to total FGFR expression for each sample. […] The normalized data was fitted using a sigmoidal curve analysis program (Graph Pad Prism version 5) with variable Hill slope to determine the EC50 values.
After treatment, the cells were washed with cold PBS (Invitrogen), and were immediately lysed by freeze/thawing 3× in 32 μL of cold Cell Extraction Buffer (Invitrogen), which was supplemented with Complete Protease inhibitors (Roche) and PhosphoSTOP (Roche) phosphatase inhibitors.
MSD plates (Meso Scale Discovery) were coated with total FGFR-4 antibodies overnight at 4° C. A lysate (25 μL) was added to the MSD plate overnight at 4° C. The MSD signals were obtained by incubating with a phospho-FGFR antibody (R&D Systems) and an anti-rabbit sulfo-tag antibody (Meso Scale), for 2 hr at room temperature. […] The data was fitted using a sigmoidal curve analysis program (Graph Pad Prism version 5) with variable Hill slope to determine the EC50 values.
MDA-MB-453 cells were grown in 96-well poly-D-lysine plates (BD Bioscience, San Jose, Calif.) to 90% confluence. The cells were then incubated in low-serum (0.1% FBS) media for 16-18 hr. […] After treatment, the MDA-MB-453 cells were washed with cold PBS (Invitrogen) and were immediately lysed by freeze/thawing 3× in 32 μL of cold Cell Extraction Buffer (Invitrogen), which was supplemented with Complete Protease inhibitors (Roche) and PhosphoSTOP (Roche) phosphatase inhibitors.
Nunc-immuno plates (96-well; Sigma, St. Louis, Mo.) were coated with total FGFR-4 antibodies overnight at 4° C. A lysate (25 μL) was added to the plate for 2 hr at room temperature. A phospho-FGFR detection antibody (100 μL) was added per well for 2 hr at room temperature, followed by a goat anti-rabbit HRP antibody (100 μL) for 45 min. […] The data was fitted using a sigmoidal curve analysis program (Graph Pad Prism version 5) with variable Hill slope to determine the EC50 values.

[4] = method a: Invitrogen FGFR4-WT 10 nM, ATP 300 uM, Y10-Sox 10 uM, read-out: FGFR4 IC50
[5] = Method A immunoblotting (Western blotting)

Row | Structure (SMILES) | EC50 [1] [nM] | GI50 (MDA-MB-453 cells) [nM] | IC50 (FGFR4-WT; [4]) [nM] | GI50 (Huh7 cells) [nM] | also measured
1 | C=CC(=O)NC1CCCCC1Nc1ncc2c(n1)N(Cc1cccnc1)C(=O)N(c1c(Cl)c(OC)cc(OC)c1Cl)C2 (racemic) [I-35] | 101 to 500 | 101 to 500 | < 100 | 501 to 999 | 
2 | C=CC(=O)NC1CCCCC1Nc1ncc2c(n1)N(CC#N)C(=O)N(c1c(Cl)c(OC)cc(OC)c1Cl)C2 (racemic) [I-47] |  |  | < 100 | > 1000 | EC50 (pFGFR4 in Huh7 cells): 501 to 999 nM
3 | C=CC(=O)NC1CCCCC1Nc1ncc2c(n1)N(CCOC)C(=O)N(c1c(Cl)c(OC)cc(OC)c1Cl)C2 (racemic) [I-61] | 101 to 500 | 101 to 500 | < 100 | 501 to 999 | EC50 (pFGFR4 in Huh7 cells): 101 to 500 nM
4 | C=CC(=O)NC1CCCCC1Nc1ncc2c(n1)N(Cc1ccccc1)C(=O)N(c1c(Cl)c(OC)cc(OC)c1Cl)C2 (racemic) [I-63] | 101 to 500 | 101 to 500 |  | 101 to 500 | IC50 (FGFR4-WT): < 100 nM
5 | C=CC(=O)NC1CCCCC1Nc1ncc2c(n1)N(C1CC1)C(=O)N(c1c(Cl)c(OC)cc(OC)c1Cl)C2 (racemic) [I-68] |  | > 1000 | 101 to 500 | > 1000 | EC50 (pFGFR4 in Huh7 cells): 501 to 999 nM
6 | C=CC(=O)NC1CCCCC1Nc1ncc2c(n1)N(Cc1cscn1)C(=O)N(c1c(Cl)c(OC)cc(OC)c1Cl)C2 (racemic) [I-69] |  | 101 to 500 | < 100 | 501 to 999 | duration of action against pFGFR4 signalling after washout [2]: prolonged inhibition of autophosphorylation of FGFR4; also recorded: prolonged duration of action
7 | C=CC(=O)NC1CCCCC1Nc1ncc2c(n1)N(C)C(=O)N(c1cc(OC)cc(OC)c1Cl)C2 (racemic) [I-76] |  |  | 501 to 999 | > 1000 | EC50 (pFGFR4 in Huh7 cells): > 1000 nM
8 | C=CC(=O)NC1CCCCC1Nc1ncc2c(n1)N(CC(F)F)C(=O)N(c1c(Cl)c(OC)cc(OC)c1Cl)C2 (racemic) [I-105] |  |  | 101 to 500 | 501 to 999 | EC50 (pFGFR4 in Huh7 cells): 101 to 500 nM
9 | C=CC(=O)NC1CCCCC1Nc1ncc2c(n1)N(CC(F)F)C(=O)N(c1cc(OC)cc(OC)c1Cl)C2 (racemic) [I-107] |  |  | > 1000 | > 1000 | EC50 (pFGFR4 in Huh7 cells): > 1000 nM
10 | C=CC(=O)NC1CCCCC1Nc1ncc2c(n1)N(CCF)C(=O)N(c1cc(OC)cc(OC)c1Cl)C2 (racemic) [I-111] |  |  | 501 to 999 | > 1000 | EC50 (pFGFR4 in Huh7 cells): > 1000 nM
11 | C=CC(=O)Nc1ccccc1Nc1ncc2c(n1)N(Cc1cccc(NC(=O)CC)c1)C(=O)N(c1c(Cl)c(OC)cc(OC)c1Cl)C2 [I-1] | < 100 | < 100 | < 100 | 101 to 500 | duration of action against pFGFR4 signalling after washout [2]: prolonged duration of action; also recorded: has PDA; EC50 (pFGFR4 in Huh7 cells): < 100 nM
12 | C=CC(=O)Nc1ccccc1Nc1ncc2c(n1)N(C)C(=O)N(c1c(Cl)c(OC)cc(OC)c1Cl)C2 [I-2] |  | < 100 |  | 101 to 500 | EC50 [3, 5]: < 100 nM
13 | C=CC(=O)Nc1ccccc1Nc1ncc2c(n1)N(Cc1ccccc1)C(=O)N(c1c(Cl)c(OC)cc(OC)c1Cl)C2 [I-3] | < 100 | < 100 |  | < 100 | EC50 ([3]; Method C ELISA): < 100 nM
14 | C=CC(=O)Nc1ccccc1Nc1ncc2c(n1)N(C)C(=O)N(c1cc(OC)cc(OC)c1)C2 [I-5] | 101 to 500 | 501 to 999 |  | > 1000 | 
15 | C=CC(=O)Nc1cc(N2CCN(CCOC)CC2)ccc1Nc1ncc2c(n1)N(Cc1cccc(NC(=O)CC)c1)C(=O)N(c1cc(OC)cc(OC)c1)C2 [I-9] | < 100 | < 100 |  | 501 to 999 | 
16 | C=CC(=O)Nc1ccccc1Nc1ncc2c(n1)N(Cc1cccc(F)c1)C(=O)N(c1c(Cl)c(OC)cc(OC)c1Cl)C2 [I-12] | 101 to 500 | 101 to 500 |  |  | 
17 | C=CC(=O)Nc1cc(N(C)CCOC)ccc1Nc1ncc2c(n1)N(Cc1ccccc1)C(=O)N(c1cc(OC)cc(OC)c1)C2 [I-13] | 101 to 500 | 101 to 500 |  | > 1000 | 

Row | Structure (SMILES) | EC50 [1] [nM] | GI50 (MDA-MB-453 cells) [nM] | IC50 (FGFR4-WT; [4]) [nM] | GI50 (Huh7 cells) [nM] | also measured
18 | C=CC(=O)Nc1cc(N2CCN(CC)CC2)ccc1Nc1ncc2c(n1)N(C)C(=O)N(c1cc(OC)cc(OC)c1)C2 [I-15] | 101 to 500 | < 100 |  |  | 
19 | C=CC(=O)Nc1cc(N2CCOCC2)ccc1Nc1ncc2c(n1)N(C)C(=O)N(c1cc(OC)cc(OC)c1)C2 [I-17] | 101 to 500 | 101 to 500 |  |  | 
20 | C=CC(=O)Nc1cc(N2CCN(CCOC)CC2)ccc1Nc1ncc2c(n1)N(C)C(=O)N(c1cc(OC)cc(OC)c1)C2 [I-20] | 101 to 500 | < 100 |  |  | 
21 | C=CC(=O)Nc1cc(N(C)CCOC)ccc1Nc1ncc2c(n1)N(C)C(=O)N(c1cc(OC)cc(OC)c1)C2 [I-21] | 101 to 500 | 101 to 500 |  | 501 to 999 | 
22 | C=CC(=O)Nc1ccccc1Nc1ncc2c(n1)N(Cc1ccc(F)cc1)C(=O)N(c1c(Cl)c(OC)cc(OC)c1Cl)C2 [I-25] | 101 to 500 | < 100 |  | 501 to 999 | 
23 | C=CC(=O)Nc1ccccc1Nc1ncc2c(n1)N(Cc1cccc(N)c1)C(=O)N(c1c(Cl)c(OC)cc(OC)c1Cl)C2 [I-26] | < 100 | < 100 |  | < 100 | 
24 | C=CC(=O)Nc1ccccc1Nc1ncc2c(n1)N(Cc1cccnc1)C(=O)N(c1cc(OC)cc(OC)c1)C2 [I-44] | 101 to 500 | 101 to 500 |  | > 1000 | 
25 | C=CC(=O)Nc1cc(N2CCN(C(C)=O)CC2)ccc1Nc1ccc2c(c1)N(C)C(=O)N(c1cc(OC)cc(OC)c1)C2 [I-55] | 101 to 500 | 101 to 500 | < 100 | 101 to 500 | 
26 | C=CC(=O)Nc1ccccc1Nc1ncc2c(n1)N(CCOC)C(=O)N(c1cc(OC)cc(OC)c1)C2 [I-59] | 101 to 500 | 501 to 999 |  | > 1000 | 
27 | C=CC(=O)N[C@H]1CCCC[C@H]1Nc1ncc2c(n1)N(Cc1cscn1)C(=O)N(c1c(Cl)c(OC)cc(OC)c1Cl)C2 [I-114] | 101 to 500 | 101 to 500 |  | 101 to 500 | IC50 (FGFR4-WT; read-out: FGFR4 IC50): < 100 nM
28 | C=CC(=O)NC1COCC1Nc1ncc2c(n1)N(C)C(=O)N(c1c(Cl)c(OC)cc(OC)c1Cl)C2 (stereo not shown) [I-126] | < 100 | < 100 |  | 101 to 500 | 
29 | C=CC(=O)Nc1ccccc1Nc1ncc2c(n1)N(Cc1csc(C)n1)C(=O)N(c1c(Cl)c(OC)cc(OC)c1Cl)C2 [I-134] | < 100 | < 100 |  |  | 
30 | C=CC(=O)NCc1ccccc1Nc1ncc2c(n1)N(Cc1cccc(NC(=O)CC)c1)C(=O)N(c1c(Cl)c(OC)cc(OC)c1Cl)C2 [I-179] |  | 101 to 500 |  | 101 to 500 | EC50 [3, 5]: < 100 nM
31 | C=CC(=O)Nc1ccccc1CNc1ncc2c(n1)N(Cc1cccc(NC(=O)CC)c1)C(=O)N(c1c(Cl)c(OC)cc(OC)c1Cl)C2 [I-180] |  |  |  |  | EC50 ([3]; Method C ELISA): < 100 nM
32 | C=CC(=O)Nc1cccc(Nc2ncc3c(n2)N(Cc2cccc(NC(=O)CC)c2)C(=O)N(c2c(Cl)c(OC)cc(OC)c2Cl)C3)c1 [I-232] |  |  |  |  | EC50 [3, 5]: < 100 nM; IC50 (FGFR4-WT; read-out: FGFR4 IC50): < 100 nM
33 | C=CC(=O)Nc1ccc(Nc2ncc3c(n2)N(Cc2cccc(NC(=O)CC)c2)C(=O)N(c2c(Cl)c(OC)cc(OC)c2Cl)C3)cc1 [I-233] |  |  |  |  | EC50 [3, 5]: < 100 nM; IC50 (FGFR4-WT; method b: SignalChem FGFR4-WT 2.5 nM, ATP 250 uM, Y10-Sox 10 uM, read-out: FGFR4 IC50): < 100 nM
34 | CCC(=O)Nc1ccccc1Nc1ncc2c(n1)N(Cc1ccccc1)C(=O)N(c1c(Cl)c(OC)cc(OC)c1Cl)C2 [I-236] | > 1000 |  |  |  | 
